The source of these data is patent US20240400698A1, “ANTI-CHEMOKIN LIKE RECEPTOR 1 ANTIBODIES AND THEIR THERAPEUTIC APPLICATIONS” (OSE IMMUNOTHERAPEUTICS, priority 2018, published 2024).

One experiment concerns Mice dendritic cells. The experiment is described as follows: Maturation and differentiation of mice bone marrow derived dendritic cells, activation markers and viability by FACS. In kind it is cell-based. The method, then: FIG. 1. Effect of the anti-CMKLR1 variants 1G1, 2G1, 3G1 and 4G1 chimeric antibodies on the DCs maturation and differentiation. Mice dendritic cells were incubated during maturation phase (24 h or 48 h) followed by a differentiation phase with excipient or RvE1 or anti-CMKLR1 antibodies variants (mutations on positions 1 and 2 of SEQ ID No. 8, corresponding to the VH-CDR3: 1G1 (LL), 2G1 (LI), 3G1 (IL) or 4G1 (II) or isotype controls (hIgG1 or mIgG)). Cells were then stained for FACS analysis with cell marker antibodies: A. CD80-PE; B. CD86-FITC; C. CD103-PerCPCy5.5; D. I/Ab-APC. Mean of Fluorescence was determined in each condition. E and F represent the viability of the cells measured by FACS using LIVE/DEAD® kit from Life Technologies in each condition after 24 or 48 hours of maturation respectively.
FIG. 17. Study of the myeloid cell activation markers after CMKLR1 pathway activation. Dendritic cells incubated in excipient, RvE1, 2G1 or isotype control (hIgG1) were then stained for FACS analysis with marker antibodies: A. CD80-PE. B. CD86-FITC. C. CD103-PerCPCy5.5. D. CD40-PeCy7. E. I/Ab-APC. Mean of Fluorescence was determined in each condition.
Bone marrow cells were harvested and cultured in RPMI medium supplemented with 10% FBS, glutamine and antibiotics and the dendritic cell differentiation was induced by GM-CSF at 20 ng/ml for 7 days. Then, immature dendritic cells (iDC) were collected and cultured for 24 hours with LPS (100 ng/ml) to induce the maturation from iDC to mDC. Treatments were added during differentiation and maturation at 2 μg/ml.
Dendritic cells were resuspended in PBS-FBS-EDTA and incubated with live and dead (LIVE/DEAD® Fixable Dead Cell Stains Yellow-Life Technologies) for 30 minutes on ice. Staining of CD11c-BV711, CD11b-APCCy7, I/Ab-APC, CD103-PerCPCy5.5, CCR7-V450, CD40-PeCy7, CD80-PE, CD86-FITC (all provided by BD Pharmingen) were performed.
For orientation: In flow cytometry, cells or beads pass a laser one at a time.

Experiment [1] concerns C57BI/6 male mice, colitis induced by TNBS. The experiment in a line: Acute inflammatory colitis model induced by TNBS. The experiment is classed as in vivo. To be noted: FIG. 3, 2G1 10 μg, RvE1 1 μg per mouse i.p. The method, then:
FIG. 3. […] Mice received 200 μL of the haptenating agent TNBS at 5% in 50% ethanol on day 0 and then were injected with isotype control hIgG1 (10 μg per mouse) (x), RvE1 (1 μg per mouse) daily (•), or 2G1 antibody (10 μg per mouse) three times ( ) for 5 days, or non-treated (wild type animals) (▾). Mice were sacrificed colon length was measured in each condition.
Colitis was induced in 8-10 weeks-old-C57BI/6 male mice by intrarectal injection of 200 μL of the haptenating agent TNBS at 5% in 50% ethanol on day 0. Treatments were injected intra-peritoneally; RvE1 (1 μg per mouse) daily for three days, or 2G1 antibody (10 μg per mouse) twice for 3 days. Colitis follow-up consisting of body weight and stool score (0: normal stool; 4: blood in stool) parameters were performed daily (data not represented). When mice are euthanized, colon length representing the pathology severity was measured.

Experiment [2] concerns male C57BI/6 mice, Aldara-induced psoriasis. The experiment is described as follows: Imiquimod (Aldara)-induced psoriasis-like skin inflammation. The experiment is classed as in vivo. The settings on record: 1 μg per mouse i.p. daily, vs control molecule. The method, then:
FIG. 6. Effect of Resolvin E1 on an autoimmune disease such as mice psoriasis model. Aldara treated mice for 6 consecutive days were injected intra-peritoneally with: RvE1 (1 μg) (•) and PBS daily, and isotype control antibody (10 μg) (x) at day 0, 2 and 4. A. Ear thicknesses and B. skin thicknesses were measured daily until the recovery.
Aldara@ cream which is known to induce psoriasis in mice was used on male C57BI/6 mice (8-10-week old). Mice received a daily topical dose of Aldara on the shaved back and the left ear for 6 consecutive days. Treatments were injected intra-peritoneally: RvE1 (1 μg per mouse) and PBS daily. Ear (FIG. 6A) and back (FIG. 6B) thicknesses were measured daily until the recovery.

The test system of experiment [3] is mice, peritonitis induced by Zymosan A. The experiment in a line: Zymosan A peritonitis model (sepsis). The experiment is classed as in vivo. To be noted: preventive injection, vs isotype control. The method, then:
FIG. 7. […] Preventive injection of anti-CMKLR1 was performed before Zymosan A injection (1 mg per mouse in 1 mL): RvE1 (1 μg per mouse) (•), 2G1 antibody (10 μg per mouse) ( ) or isotype control antibody (x). A. PMN numbered during the first 50 hours after Zymosan A injection. B. Macrophages numbered during the first 50 hours after Zymosan A injection. C. Resolution index.
Common peritonitis is induced by intraperitoneal injection of Zymosan A® (1 mg per mouse in 1 mL). Preventive injection of anti-CMKLR1 was performed 5 minutes before Zymosan A injection: RvE1 (1 μg per mouse), 2G1 antibody (10 μg per mouse). Murine peritoneal polymorphonuclear neutrophil (PMN) and macrophages were collected at 2-4-8-16-24 and 48 h after Zymosan A injection and numbered by flow cytometry analysis to determinate the resolution index (Bannenberg et al., 2005).

Experiment [4] deals with mice M1 or M2 macrophages. The experiment in a line: Cytokine secretion by mice M1 or M2 macrophages (ELISA), FIG. 15. The experiment is classed as cell-based. The settings on record: FIG. 15; IL10, CCL17, IL12p40. The method, then:
FIG. 15. Study of the inflammatory cytokine secretion by human macrophages during CMKLR1 activation. After differentiation of human macrophages M1 or M2, cells were incubated in presence of medium, isotype control, anti-CMKLR1 antibodies (H6 and BZ194), C15 peptides, 2G1 anti-CMKLR1 antibody or RvE1. Secretion of IL10, CCL17 and IL12p40 were assessed by ELISA. Cytokines secretion is measured in the supernatant by using an ELISA kit from BD. Supernatant were diluted at 1/10 for IL10 cytokines, 1/50 for CCL17 cytokines and 1/100 for IL12p40 cytokines. A. IL10 cytokine secretion by M2 cells. B. CCL17 cytokine secretion by M2 cells. C. represents IL 12 cytokine secretion by M1 cells.
Bone marrow cells were harvested and cultured in the RPMI medium supplemented with 10% FBS, glutamine and antibiotics containing macrophages colony-stimulating factor (M-CSF) at 100 ng/ml for 5 days inducing the macrophages differentiation. The macrophages were harvested and cultured for 2 days with either IFNg (20 ng/ml) and LPS (100 ng/ml) inducing the M1 polarization or with IL-4 (20 ng/ml) inducing the M2 polarization. Treatments were added during macrophage polarization at 2 μg/ml.
After differentiation of mice M1 or M2 as explain above, cells were incubated in presence of medium, isotype control, anti-CMKLR1 antibodies: clones H6 and BZ194, C15 peptides, 2G1 the anti-CMKLR1 antibody of interest or RvE1 were used. Then the secretion of IL10, CCL17 and IL12p40 was assessed by ELISA. Cytokines secretion was measured in the supernatant using an ELISA kit from BD. Supernatants were diluted at 1/10 for IL10 cytokines, 1/50 for CCL17 cytokines and 1/100 for IL12p40 cytokines.
Cytokines secretion was detected by ELISA according to the BD manufacturer instructions. Briefly, supernatants were diluted in the appropriate buffer and incubated for 2 hours after overnight coating with capture antibody and saturation. […] TMB supplied by BD Bioscience was used as substrate and colorimetric reaction was read with TECAN.
In general terms: An ELISA detects its analyte on a solid surface through an enzyme-linked reagent.

With `CC[C@@H](O)/C=C/C=C\C[C@@H](O)/C=C/C=C/C=C\[C@@H](O)CCCC(=O)O` [RvE1, Resolvin E1, reference compound], the “expression of CD80, CD86, CD103, CD40 and IAb (DC activation markers)” value in the experiment on Mice dendritic cells (FIG. 17, FACS, compared to the excipient or isotype control) is recorded as “strong decrease”. Further, in experiment [1], the colon length entry is “the same as normal animal (wt)”. Moreover, in experiment [2] (FIG. 6A), the “thickness of the ears” value was “lower thickness”. For the same molecule, the “thickness of the skin (back)” value in experiment [2] (FIG. 6B) was “lower thickness”. The PMNs number entry in experiment [3] (FIG. 7A) is on record as “slightly less”. The macrophages number entry in experiment [3] (FIG. 7B) is listed as “slightly less”. Moreover, the resolution index entry in experiment [3] (FIG. 7C) was “better resolution index”. Also, the “inflammatory cytokines secreted by M1 or M2 macrophages, result compared with that of 2G1” value in experiment [4] was “different”.

B1: 1G1: anti-CMKLR1 chimeric antibody variant, LL on positions 1 and 2 of VH-CDR3 (SEQ ID No. 8) (antibody, V domains shown)
VH: EVQLVASGGGLVQPGGSLKLSCAASGFTFSSYGMSWVRQTPDRRLELVATINRYGGSTYYPDSVKGRFTISRDNAKNTLYLQMSSLKSEDTAMYYCPRLLYYGNEGDSWGQGTTLTVSS
VL: QIVLTQSPAIMSASPGEKVTMTCSASSSVSFMHWYQQKSGTSPKRWIYDTTKLTSGVPARFSGSGSGTFYSLTISSMEAEDAATYYCQQWNSKPPLTFGPGTKLELKR
Regarding B1, the “DCs activation and/or maturation towards a pro-inflammatory pathway” value with Mice dendritic cells (FIG. 1, mice dendritic cells, maturation 24 h or 48 h) was “inhibit DCs activation and/or maturation in a stronger manner than other synthetized antibodies (3G1 and 4G1)”. In the experiment with Mice dendritic cells (FIGS. 1E and 1F, LIVE/DEAD kit, after 24 or 48 hours of maturation, compared with other antibodies, C7 or Resolvin E1), the viability of cells entry is reported as “enhanced”.
